Entries after “also recorded” stand apart in the source; their conditions may differ.
Columns and labels:
[1] = system: wild type (WT) QSOX1 5′ UTR RNA hairpin; test: In vitro Chem-CLIP and competitive Chem-CLIP with Cy5-labeled WT RNA; assay type: binding, human
Procedure: In Vitro Chemical-Crosslinking and Isolation by Pull-down (Chem-CLIP) with Fluorescently Labeled RNA. Cy5-labeled RNA (100 μL, 2 μM) was folded by heating at 95° C. for 2 min in 1× Folding Buffer and cooled on ice. The RNA was then mixed with F1 at the indicated concentrations. The sample was irradiated with UV light (365 nm) for 15 min and then added to 100 μL of azide-disulfide agarose beads (Click Chemistry Tools, 1238-2) pre-washed with 200 μL of 25 mM HEPES, pH 7.0. A click reaction solution was prepared by mixing 30 μL of 250 mM sodium ascorbate, 30 μL of 10 mM CuSO4, and 30 μL of 50 mM THPTA, which was added to the sample. The sample was incubated while rotating at 37° C. for 2 h, briefly centrifuged, and then the supernatant was decanted. The beads were washed six times with 1× Washing Buffer (10 mM Tris-HCl, pH 7, 4 M NaCl, 1 mM EDTA, and 0.05% (v/v) Tween-20) following by incubation with 1× Releasing Buffer (50 mM TCEP and 100 mM K2CO3) at 37° C. for 30 min. An equivalent of iodoacetamide (200 mM) was added to the sample, which was incubated at 37° C. for an additional 30 min. The sample was briefly centrifuged and supernatant containing RNA was carefully transferred to a clean tube. Cy-5 fluorescence in the supernatant was measured with a Molecular Devices SpectraMax M5 plate reader with an excitation wavelength of 640 nm and an emission wavelength of 680 nm. For competitive Chem-CLIP, F1-RIBOTAC was added to the folded the RNA and incubated at room temperature for 15 min prior to the addition of F1. Pull-down was then completed as described above.

QSOX1 mRNA = test: Chem-CLIP pull-down of QSOX1 mRNA in live cells, RT-qPCR (dose and time dependence); assay type: cell-based, human
Procedure: Chemical-Cross-linking and Isolation by Pull-down (Chem-CLIP) in Live Cells. MDA-MB-231 cells were seeded in 60 mm dishes and allowed to reach ˜80% confluency. The cells were then treated with 20 μM of compound in growth medium and incubated for 16 h. Cells were washed with 1×DPBS and irradiated with UV light for 10 min. Total RNA was harvested using a Zymo Quick-RNA Miniprep Kit per the manufacturer's protocol with DNase treatment. Total RNA was chemically fragmented by using an NEBNext Magnesium RNA Fragmentation Module (E6150S) per manufacturer's protocol to achieve final lengths between 100-150 nucleotides Pull-down of cross-linked RNAs was performed by adding 10 μg of total RNA to 100 μL of azide-disulfide agarose beads (Click Chemistry Tools, 1238-2) pre-washed with 25 mM HEPES, pH 7.0. The click reaction and pull-down were completed as described in “In Vitro Chemical-Crosslinking and Isolation by Pull-down (Chem-CLIP) with Fluorescently Labeled RNA”. The pulled down RNA was purified by RNA CleanXP beads (Beckman, A66514) per manufacturer's protocol.
For dose response studies, cells were treated with varying concentration of F1 (1, 5, 20 μM) as described above for 16 h. For time course studies, cells were treated with 20 μM of for 1, 4, 8, or 16 h. With the exception of compound concentration or time at which total RNA was harvested, the remaining steps of the protocol were completed as described above for both concentration- and time-dependent studies.
Analysis of mRNA Abundance by RT-qPCR. Unless stated otherwise, all RT-qPCR experiments were performed to measure nascent RNA levels by using Click-it Nascent RNA Capture Kit (Cat #C10365, Thermo Fisher) per the manufacturer's protocols. Briefly, cells were treated with 0.2 mM of ethynyl uridine (EU) in growth medium for 16 h, after which the medium was replaced with fresh growth medium lacking EU. Compound or ASO treatment was performed at the same time of initial EU treatment, and compounds were replenished after replacing the medium to remove EU. Total RNA was extracted by using a Zymo Quick-RNA Miniprep Kit as per manufacturer's protocol with DNase treatment. The click reaction and pull-down of nascent RNA were performed as described in “In Vitro Chemical-Crosslinking and Isolation by Pull-down (Chem-CLIP) with Fluorescently Labeled RNA”. Reverse transcription (RT) was performed by using 300 ng total RNA and a QScript cDNA synthesis kit (QuantaBio) per manufacturer's protocols qPCR was performed in 384-well plates by using Power SYBR Green Master Mix (Life Technologies) on a QuantStudioS™ Cycler (Applied Biosystems) using the “Comparative Ct with Melt” method.

Compound: CCOC(=O)C1=C(Nc2ccccc2)S/C(=C\c2ccc(OCCOCCOCCOCCNC(=O)CCC(=O)N(C)[C@H]3CC[C@@H](c4ccc(Cl)c(Cl)c4)c4ccccc43)c(O)c2)C1=O [Compound F1-RIBOTAC]
- competition of F1 cross-linking to the QSOX1-a target site (competitive Chem-CLIP) ([1]; constant concentration of F1, increasing competitor): dose-dependently competed off; also recorded: dose-dependently ablates

Compound: C#CCCC1(CCC(=O)N(C)[C@H]2CC[C@@H](c3ccc(Cl)c(Cl)c3)c3ccccc32)N=N1 [Compound F1]
- enrichment of QSOX1 mRNA (QSOX1 mRNA; 5 μM, 16 h incubation): ~6 fold
- enrichment of QSOX1 mRNA (QSOX1 mRNA; 20 μM, 1 h incubation): no enrichment
- enrichment of QSOX1 mRNA (QSOX1 mRNA; 20 μM, 4 h): ~4 fold
- enrichment of QSOX1 mRNA (QSOX1 mRNA; 20 μM, 8 h and 16 h time points): plateauing
- enrichment of QSOX1 mRNA (QSOX1 mRNA; 20 μM, 16 h incubation): ~12 fold
- cross-linking / pull-down of WT QSOX1-a 5′ UTR hairpin ([1]; in vitro Chem-CLIP): selectively cross-linked; also recorded: significantly pulled down

— patent publication US20250346943A1, “DEGRADER COMPOUNDS OF QSOX1 mRNA” (UNIVERSITY OF FLORIDA RESEARCH FOUNDATION, INCORPORATED, priority 2022, published 2025)
